Consider 13 substances from patent US20120076781A1, “METHODS OF TREATING CANCERS WITH HER3 ANTISENSE OLIGONUCLEOTIDES” (ENZON PHARMACEUTICALS, INC., priority 2009, published 2012).

In the oligonucleotide strings, read from the 5' end, every base follows the letter of its sugar. An asterisk marks phosphorothioate; unmarked linkages are phosphodiester. Other units and linkages are bracketed, terminal groups are in braces. A string of capitals states the bases alone. l = locked nucleic acid (LNA); [5mC] = 5-methylcytosine; d = 2'-deoxy (DNA)

Format in all cases: cell-based
Common to all, as to conditions: 25 nM

The subject of one series is human EGFR mRNA. Kind of series: Down-regulation of EGFR mRNA in transfected 15PC3 cells, real-time PCR. The protocol:
(§1) 15PC3: The human prostate cancer cell line 15PC3 was cultured in DMEM (Sigma)+10% fetal bovine serum (FBS)+2 mM Glutamax I+gentamicin (25 μg/ml).
(§2) The cells were treated with oligonucleotides using the cationic liposome formulation LipofectAMINE 2000 (Gibco) as transfection vehicle. Cells were seeded in 6-well cell culture plates (NUNC) and treated when 80-90% confluent. Oligomer concentrations ranged from 1 nM to 25 nM final concentration. Formulation of oligomer-lipid complexes was carried out essentially as described by the manufacturer using serum-free OptiMEM (Gibco) and a final lipid concentration of 5 μg/mL LipofectAMINE 2000. Cells were incubated at 37° C. for 4 hours and treatment was stopped by removal of oligomer-containing culture medium. Cells were washed and serum-containing medium was added. After oligomer treatment, cells were allowed to recover for 20 hours before they were harvested for RNA analysis.
(§3) Total RNA was extracted from cells transfected as described above and using the Qiagen RNeasy kit (Qiagen cat. no. 74104) according to the manufacturer's instructions. First strand synthesis was performed using Reverse Transcriptase reagents from Ambion according to the manufacturer's instructions.
(§4) For each sample 0.5 μg total RNA was adjusted to (10.8 μl) with RNase free H2O and mixed with 2 μl random decamers (50 μM) and 4 μl dNTP mix (2.5 mM each dNTP) and heated to 70° C. for 3 min after which the samples were rapidly cooled on ice. After cooling the samples on ice, 2 μl 10× Buffer RT, 1 μl MMLV Reverse Transcriptase (100 U/μl) and 0.25 μl RNase inhibitor (10 U/μl) was added to each sample, followed by incubation at 42° C. for 60 min, heat inactivation of the enzyme at 95° C. for 10 min, and then cooling the sample to 4° C.
(§5) The sample content of human HER3, EGFR and HER2 mRNA was quantified using the human HER3, EGFR and HER2 ABI Prism Pre-Developed TaqMan Assay Reagents (Applied Biosystems cat. no. Hs00951444_ml (HER3), Hs00193306_ml (EGFR) and Hs00170433_ml (HER2) according to the manufacturer's instructions.
(§6) Glyceraldehyde-3-phosphate dehydrogenase (GAPDH) mRNA quantity was used as an endogenous control for normalizing any variance in sample preparation. The sample content of human GAPDH mRNA was quantified using the human GAPDH ABI Prism Pre-Developed TaqMan Assay Reagent (Applied Biosystems cat. no. 4310884E) according to the manufacturer's instructions.
(§7) The cDNA from the first strand synthesis performed as described in Example 5 was diluted 2-20 times, and analyzed by real time quantitative PCR using Taqman 7500 FAST or 7900 FAST from Applied Biosystems. The primers and probe were mixed with 2× Taqman Fast Universal PCR master mix (2×) (Applied Biosystems Cat. #4364103) and added to 4 μl cDNA to a final volume of 10 μl. Each sample was analysed in duplicate. Assaying 2-fold dilutions of a cDNA that had been prepared on material purified from a cell line expressing the RNA of interest generated standard curves for the assays. Sterile H2O was used instead of cDNA for the no-template control. PCR program: 95° C. for 30 seconds, followed by 40 cycles of 95° C., 3 seconds, 60° C., 20-30 seconds. Relative quantities of target mRNA sequence were determined from the calculated Threshold cycle using the Applied Biosystems Fast System SDS Software Version 1.3.1.21. or SDS Software Version 2.3.
(§8) Oligonucleotides presented in Table 4 were evaluated for their potential to down-regulate HER3, EGFR and HER2 mRNA at concentrations of 1, 5 and 25 nM in 15PC3 cells (or HUH-7 as indicated by *) (see FIGS. 2, 3, 4 and 5). SEQ ID NOs: 235 and 236 were used as scrambled controls.
(§9) The data in Table 4 are presented as percentage down-regulation of mRNA relative to mock transfected cells at 25 nM. Lower-case letters represent DNA monomers, bold, upper-case letters represent β-D-oxy-LNA monomers. All cytosines in LNA monomers are 5-methylcytosines. Subscript “s” represents a phosphorothioate linkage.
Background: In qPCR the cycle at which signal appears reflects the starting amount.

In a further series the test system is human HER2 mRNA. Kind of series: Down-regulation of HER2 mRNA in transfected 15PC3 cells, real-time PCR. The protocol: as §1, §2, §3, §4, §5, §6, §7, §8, §9
The next series deals with human HER3 mRNA. The series is described as follows: Down-regulation of HER3 mRNA in transfected 15PC3 cells, real-time PCR. The procedure: as §1, §2, §3, §4, §5, §6, §7, §8, §9

Turning to “ASTSASgScStScScSaSgSaScSaSTSCSA (antisense lA*lT*lA*dG*dC*dT*dC*dC*dA*dG*dA*dC*dA*lT*l[5mC]*lA) [SEQ ID NO: 173, β-D-oxy-LNA/DNA phosphorothioate gapmer antisense oligonucleotide targeting HER3]”, the “EGFR: percentage down-regulation of mRNA relative to mock transfected cells” value with human EGFR mRNA was found to be 96.4%. In addition, in the series on human HER2 mRNA, the “HER2: percentage down-regulation of mRNA relative to mock transfected cells” value stood at 39.2%.
Regarding “ASTSCScSaSaScSaScStStSgSaSCSCSA (antisense lA*lT*l[5mC]*dC*dA*dA*dC*dA*dC*dT*dT*dG*dA*l[5mC]*l[5mC]*lA) [SEQ ID NO: 176, β-D-oxy-LNA/DNA phosphorothioate gapmer antisense oligonucleotide targeting HER3]”, in the series with human HER3 mRNA, the “HER3: percentage down-regulation of mRNA relative to mock transfected cells” value is 61.6%. Also, in the series with human EGFR mRNA, the “EGFR: percentage down-regulation of mRNA relative to mock transfected cells” value is listed as 79.4%. Moreover, the “HER2: percentage down-regulation of mRNA relative to mock transfected cells” value in the series on human HER2 mRNA amounted to 74.8%.
Consider “CSASASgSgScStScSaScSaScSaSTSCST (antisense l[5mC]*lA*lA*dG*dG*dC*dT*dC*dA*dC*dA*dC*dA*lT*l[5mC]*lT) [SEQ ID NO: 182, β-D-oxy-LNA/DNA phosphorothioate gapmer antisense oligonucleotide targeting HER3]”, for which the “HER3: percentage down-regulation of mRNA relative to mock transfected cells” value with human HER3 mRNA stood at 74.6%.
With “CSASAStScSaStScScSaSaScSaSCSTST (antisense l[5mC]*lA*lA*dT*dC*dA*dT*dC*dC*dA*dA*dC*dA*l[5mC]*lT*lT) [SEQ ID NO: 177, β-D-oxy-LNA/DNA phosphorothioate gapmer antisense oligonucleotide targeting HER3]”, in the series on human HER3 mRNA, the “HER3: percentage down-regulation of mRNA relative to mock transfected cells” value amounted to 51.1%. Also, the “EGFR: percentage down-regulation of mRNA relative to mock transfected cells” value in the series on human EGFR mRNA is 0%. Moreover, in the series with human HER2 mRNA, the “HER2: percentage down-regulation of mRNA relative to mock transfected cells” value was 63.4%.
On to “CSASGSaScSaStScSaScStScStSGSGST (antisense l[5mC]*lA*lG*dA*dC*dA*dT*dC*dA*dC*dT*dC*dT*lG*lG*lT) [SEQ ID NO: 171, β-D-oxy-LNA/DNA phosphorothioate gapmer antisense oligonucleotide targeting HER3]”, for which the “HER3: percentage down-regulation of mRNA relative to mock transfected cells” value in the series with human HER3 mRNA was 70.6%. Also, the “EGFR: percentage down-regulation of mRNA relative to mock transfected cells” value in the series on human EGFR mRNA is 84.2%. Besides, the “HER2: percentage down-regulation of mRNA relative to mock transfected cells” value in the series on human HER2 mRNA came out at 2.8%.
Consider “CSASTSaScStScScStScSaStScSTSTSC (antisense l[5mC]*lA*lT*dA*dC*dT*dC*dC*dT*dC*dA*dT*dC*lT*lT*l[5mC]) [SEQ ID NO: 193, β-D-oxy-LNA/DNA phosphorothioate gapmer antisense oligonucleotide targeting HER3]”, for which the “HER3: percentage down-regulation of mRNA relative to mock transfected cells” value in the series on human HER3 mRNA was 64%.
As for “CSASTScScSaSaScSaScStStSgSASCSC (antisense l[5mC]*lA*lT*dC*dC*dA*dA*dC*dA*dC*dT*dT*dG*lA*l[5mC]*l[5mC]) [SEQ ID NO: 175, β-D-oxy-LNA/DNA phosphorothioate gapmer antisense oligonucleotide targeting HER3]”, the “HER3: percentage down-regulation of mRNA relative to mock transfected cells” value with human HER3 mRNA is 65.5%. Besides, the “EGFR: percentage down-regulation of mRNA relative to mock transfected cells” value with human EGFR mRNA worked out at 86.1%. The “HER2: percentage down-regulation of mRNA relative to mock transfected cells” value in the series with human HER2 mRNA came to 76.9%.
As to “CSASTSgStSaSgSaScSaStScSaSASTST (l[5mC]*lA*lT*dG*dT*dA*dG*dA*dC*dA*dT*dC*dA*lA*lT*lT; antisense) [SEQ ID NO: 179]”, the “HER3: percentage down-regulation of mRNA relative to mock transfected cells” value in the series on human HER3 mRNA is on record as 70.5%. Further, the “EGFR: percentage down-regulation of mRNA relative to mock transfected cells” value in the series on human EGFR mRNA is recorded as 52.6%. The “HER2: percentage down-regulation of mRNA relative to mock transfected cells” value in the series on human HER2 mRNA worked out at 75.6%.
Consider “CSASTStScSaSaSgStStScStStSCSAST (antisense l[5mC]*lA*lT*dT*dC*dA*dA*dG*dT*dT*dC*dT*dT*l[5mC]*lA*lT) [SEQ ID NO: 184, β-D-oxy-LNA/DNA phosphorothioate gapmer antisense oligonucleotide targeting HER3]”, for which the “HER3: percentage down-regulation of mRNA relative to mock transfected cells” value in the series with human HER3 mRNA worked out at 81.1%.
With “CSTSCScSaSgSaScSaStScSaScSTSCST (antisense l[5mC]*lT*l[5mC]*dC*dA*dG*dA*dC*dA*dT*dC*dA*dC*lT*l[5mC]*lT) [SEQ ID NO: 170, β-D-oxy-LNA/DNA phosphorothioate gapmer antisense oligonucleotide targeting HER3]”, the “EGFR: percentage down-regulation of mRNA relative to mock transfected cells” value in the series with human EGFR mRNA was 91.5%. The “HER2: percentage down-regulation of mRNA relative to mock transfected cells” value in the series on human HER2 mRNA is on record as 65.8%.
In the case of “GSCSCScSaSgScSaScStSaSaStSTSTSC (antisense lG*l[5mC]*l[5mC]*dC*dA*dG*dC*dA*dC*dT*dA*dA*dT*lT*lT*l[5mC]) [SEQ ID NO: 186, β-D-oxy-LNA/DNA phosphorothioate gapmer antisense oligonucleotide targeting HER3]”, the “HER3: percentage down-regulation of mRNA relative to mock transfected cells” value with human HER3 mRNA is 79.9%.
Take “TSCSASaStScSaStScScSaSaScSASCST (antisense lT*l[5mC]*lA*dA*dT*dC*dA*dT*dC*dC*dA*dA*dC*lA*l[5mC]*lT) [SEQ ID NO: 178, β-D-oxy-LNA/DNA phosphorothioate gapmer antisense oligonucleotide targeting HER3]”: in the series with human HER3 mRNA, the “HER3: percentage down-regulation of mRNA relative to mock transfected cells” value is given as 76.7%. The “EGFR: percentage down-regulation of mRNA relative to mock transfected cells” value with human EGFR mRNA came out at 0%. Besides, the “HER2: percentage down-regulation of mRNA relative to mock transfected cells” value in the series on human HER2 mRNA was determined as 88.6%.
Consider “TSCSAScSaScScSaStSaSgScStSCSCSA (antisense lT*l[5mC]*lA*dC*dA*dC*dC*dA*dT*dA*dG*dC*dT*l[5mC]*l[5mC]*lA) [SEQ ID NO: 174, β-D-oxy-LNA/DNA phosphorothioate gapmer antisense oligonucleotide targeting HER3]”, for which, in the series with human EGFR mRNA, the “EGFR: percentage down-regulation of mRNA relative to mock transfected cells” value turned out to be 86.4%. Moreover, the “HER2: percentage down-regulation of mRNA relative to mock transfected cells” value with human HER2 mRNA turned out to be 94.8%.
